Data set [1] relates to anesthetized APP/PS1 mice. Briefly: LFP recording of epileptiform high-voltage CA1 spikes under anesthesia. The class given is in vivo. As to the method:
For intracerebroventricular (ICV) ainjections, a small hole was drilled in the skull above the left lateral ventricle (0.7 mm posterior, 1.2 mm lateral to bregma), and a 5 mm guide cannula was slowly inserted into the ventricle and fixed to the skull by dental cement (C&B Metabond, Parkell). The guide cannula was sealed with a 5 mm sterile metal bar to prevent CSF leakage and possible infections. 1-2 weeks after the surgery, the mice received ICV injections using a 10 μl syringe (Hamilton). The mice were injected with 1 μl containing 27 μg of teriflunomide (TERI), dissolved in DMSO or vehicle (1 μl of DMSO) with speed of 0.15 μl/min (Nano Jet stereotaxic syringe pump).
LFP/fEPSP recordings. Small diameter holes were drilled in the skull at the position of the recording and stimulating electrodes. […] Ground electrode was screwed to the skull above the cerebellum. Test stimuli of 50-100 μA were delivered to the SC at 0.06 Hz to verify the proper location of the electrodes and to estimate the stability of the signal. The electrodes were firmly fixed to the skull by dental cement (C&B Metabond, Parkell) and dental acrylic. Operated mice recovered in their home cage for at least a week following electrodes implantation. For evoked field excitatory postsynaptic potential (fEPSP) recordings in CA3-CA1 synapses in awake mice (FIGS. 1F-1G), mice were habituated for a few days to the experimental device that was composed from a running wheel and metal bar in which the mice were head fixed into throughout the experiment with a screw. Following habituation, the mice were head fixed to the experimental device, and CA3-CA1 fEPSP measurements were taken 30 minutes after.
Ca^2+ imaging and LFP recording in anesthetized mice. For Ca^2+ imaging and LFP recording sessions during anesthesia, mice were placed in an induction chamber connected to isoflurane vaporizer (Isotec 5), gas flow rate was turned on to 0.8 LPM (litre per minute) and the vaporizer was set at 5% isoflurane. […] Respiration and heart rate were monitored and analyzed by the physiological monitoring system. […] Temperature was also maintained by the device at 37° C. throughout the procedure.
Detection of pathological spikes in fAD models. High-voltage pathological spikes were detected by setting a threshold of 10 z-scores above and below the mean voltage during the suppression epochs of the recording and accepted only if their peak-to-peak value within 30 ms was greater than 10 z-scores. A dead-time of 50 ms was set to assure the same spike was not counted twice. Subsequently, all spikes were manually inspected and approved.

The test system of data set [2] is nRE-CA1 synapses. The data set is described as follows: nRE-CA1 synaptic transmission in APP/PS1 mice expressing hM4D(Gi)-mCherry. The class given is in vivo, mouse. The note with it: data not shown.
The subject of data set [3] is cultured hippocampal neurons (hippocampal networks ex vivo). Briefly: Mean firing rate (MFR) of hippocampal cultures on multi-electrode arrays. The class given is cell-based, mouse. Conditions: for network MFR after isoflurane application: isoflurane 1%, 24 hour. Here is the method:
Multi-electrode array (MEA). Postnatal hippocampal cultures were plated on MEA plates containing 120 titanium nitride (TiN) electrodes, in addition to 4 internal reference and 4 ground electrodes (Styr et al., 2019). Each electrode has a diameter of 30 μm and electrodes are arranged in a 12×12 grid (sparing 6 electrodes in each corner), spaced 100-200 μm apart on average (Multi Channel Systems, 120MEA200/30iR-Ti). Data acquisition was done in 3-weeks-old cultures using a standard MEA2100-Systems with a hardware filter cut-off of 3.3 kHz and sampling rate of 10 kHz per electrode. Recordings were carried out under constant 37° C. and 5% CO2 levels.
Data analysis: Raw data was filtered, offline, at 200 Hz using a Butterworth high-pass filter. Spikes were then detected, offline, using MC_Rack software (Multi Channel Systems) based on a fixed threshold set to between 5-6 standard deviations from mean. Twenty minutes of each hour (that were previously shown to reliably represent the MFR of the entire hour, were used for analysis to reduce processing time and analyzed using custom-written scripts in MATLAB (Mathworks) as previously described (Slomowitz et al., 2015). Channels with unstable (>30% change of MFR) baseline recordings during 3-4 hours prior to a perturbation were excluded from the analysis.

Data set [4] deals with CA3-CA1 synaptic connections in hippocampal slices. Briefly: Dose-response of TERI on fEPSP amplitude in acute hippocampal slices. The class given is cell-based, mouse. Here is the method:
Electrophysiology in slices. Acute hippocampal slices (coronal, 400 μm) were prepared from WT and APP/PS1 mice. Slices were transferred to a submerged recovery chamber at 32° C. containing oxygenated (95% O2 and 5% CO2) artificial cerebrospinal fluid (ACSF) for 1 h before the experiment. The ACSF contained, in mM: NaCl, 125; KCl, 2.5; CaCl2, 1.2; MgCl2, 1.2; NaHCO3, 25; NaH2PO4, 1.25; glucose, 25. fEPSPs were recorded in acute hippocampal slices with a glass pipette containing Tyrode solution (1-2 MΩ) from synapses in the CA1 using a MultiClamp700B amplifier (Molecular Devices). Stimulation of the Shaffer Collateral (SC) pathway was delivered through a glass suction electrode (10-20 μm tip) filled with Tyrode. Data were analyzed using pClamp10 (Molecular Devices).

The subject of data set [5] is CA1 neuronal populations of WT and APP/PS1 mice. The data set is described as follows: Ca2+ imaging of CA1 population activity under anesthesia. Format: in vivo, mouse.
Data set [6] relates to APP/PS1 mice. The data set is described as follows: Spatial working memory, delta-maze alternation test after general anesthesia. The class given is in vivo, mouse. Conditions: 4-5-month-old APP/PS1 mice; isoflurane inhalation 1.5%, 3 hour; 10, 20 and 60 sec delays.

Structures are written as SMILES. Several values for one entry are separate records, joined by “and”; a condition that tells them apart may be missing. Equal values may be shown once. Entries after “also recorded” stand apart in the source; their conditions may differ.

`C[N+]1([O-])CCN(C2=Nc3cc(Cl)ccc3Nc3ccccc32)CC1` [CNO]: the “decrease in the rate of epileptiform CA1 spikes vs vehicle” value in data set [1] (i.p. 5 mg/kg, anesthetized APP/PS1 mice expressing hM4D(Gi)-mCherry in nRE-CA1 synapses) was ~53%. In data set [2], the nRE-CA1 synaptic transmission result is listed as “suppressed”.

One may read the IC50 as the concentration at which inhibition is half-maximal. A lower IC50 goes with inhibition by little substance. In the case of `C/C(O)=C(\C#N)C(=O)Nc1ccc(C(F)(F)F)cc1` [TERI, (2Z)-2-cyano-3-hydroxy-N-[4-(trifluoromethyl)phenyl]but-2-enamide], in data set [1] (ICV 27 μg in 1 μl, anesthetized APP/PS1 mice), the “reduction in the frequency of high-voltage CA1 spikes vs baseline” value was ~50% and 50.7±7.2%. In addition, in data set [1] (ICV 27 μg in 1 μl, baseline 7.6±1.4 per min, n=9 anesthetized APP/PS1 mice), the “frequency of high-voltage spikes after TERI ICV injection” value stood at 3.8±0.95 per min. Further, the “negative regulation of MFR set points by TERI” value in data set [3] (APP/PS1 networks ex vivo, data not shown) is listed as “preserved”. Also, the 50% inhibitory concentration (IC50) in data set [4] (Mus musculus, hippocampal slices of APP/PS1 mice) is 19.1 µM; in data set [4] (Mus musculus, hippocampal slices of WT mice) it was 17.6 µM; in data set [4] (hippocampal slices of APP/PS1 mice), 19.2 ± 1 µM.

As for `NC1=N[C@H](O)[C@H]2[C@H]3O[C@]4(O)O[C@@H]([C@@H](O)[C@@]2(N1)[C@@H]4O)[C@]3(O)CO` [TTX, tetrodotoxin], the “rate of epileptiform CA1 spikes vs baseline” value in data set [1] (mouse, in vivo) is listed as “profound decrease; also recorded: reduction”.

In the case of `NCC(CC(=O)O)c1ccc(Cl)cc1` (stereo not shown) [baclofen], the “MFR homeostatic response to chronic inactivity” value in data set [3] (baclofen 10 μM, WT and APP/PS1 networks, first day of perturbation) is recorded as “homeostatically compensated”.

For `COc1ccc(-c2ccc(=N)n(CCCC(=O)O)n2)cc1` [gabazine], the “MFR renormalization following 2 days of gabazine application” value in data set [3] (30 μM, APP/PS1 neurons) is given as “disrupted”. For the same molecule, the “population firing rate on gabazine application (acute)” value in data set [3] (30 μM, WT networks) was “fast and pronounced increase”. Moreover, in data set [3] (30 μM, WT neurons), the “MFR following 2 days of gabazine application” value is “renormalized to the baseline level”.

Regarding `FC(F)OC(Cl)C(F)(F)F` (stereo not shown) [isoflurane], the “epileptiform high-voltage spikes in CA1” value in data set [1] (4-5 months old APP/PS1 mice under general anesthesia (1.5% isoflurane)) is 3.22±0.51 per min. Further, the “CA1 activity under anesthesia” value in data set [5] (APP/PS1 mice) is listed as “maintained constant”. The “suppression of total CA1 activity” value is listed as ~87% in data set [5] (WT mice, deep anesthesia (1.5% isoflurane)) and ~57% in data set [5] (WT mice, moderate anesthesia (1% isoflurane)). Further, the “choice accuracy in delta maze following anesthesia” value in data set [6] was “decrease in choice accuracy”. Also, the “network MFR after isoflurane application” value in data set [3] (APP/PS1 cultures) is listed as 112.5±8.7 % of baseline; in data set [3] (WT cultures), 42.0±0.9 % of baseline.

On to `Cc1cccc(C(C)c2cnc[nH]2)c1C` (stereo not shown) [medetomidine], for which the “CA1 activity under anesthesia” value is reported as “much lower level of suppression” in data set [5] (APP/PS1 mice) and “pronounced inhibition of CA1 activity” in data set [5] (WT mice, data not shown).

Values taken from patent publication US20240325760A1, “METHODS FOR DETECTING AND PREVENTING ALZHEIMER'S DISEASE AND MILD COGNITIVE IMPAIRMENT” (RAMOT AT TEL-AVIV UNIVERSITY LTD., priority 2021, published 2024).
